According to ChEMBL document CHEMBL2413072, “Synthesis and in vitro anticancer studies of novel C-2 arylidene congeners of lantadenes” (2013):

Columns and labels:
Format in all cases: functional
[1] = test system: KM12; experiment: Growth inhibition of human KM12 cells by sulforhodamine B assay
[2] = test system: NCI-H322M; experiment: Growth inhibition of human NCI-H322M cells by sulforhodamine B assay
[3] = test system: NCI-H23; experiment: Growth inhibition of human NCI-H23 cells by sulforhodamine B assay
[4] = test system: CCRF-CEM; experiment: Growth inhibition of human CCRF-CEM cells by sulforhodamine B assay
[5] = test system: UACC-257; experiment: Growth inhibition of human UACC257 cells assessed as cell growth at 10^-8 M by sulforhodamine B assay; conditions: read-out: Activity
[6] = test system: SK-MEL-28; experiment: Growth inhibition of human SK-MEL-28 cells assessed as cell growth at 10^-8 M by sulforhodamine B assay; conditions: read-out: Activity
[7] = test system: SK-MEL-2; experiment: Growth inhibition of human SK-MEL-2 cells assessed as cell growth at 10^-8 M by sulforhodamine B assay; conditions: read-out: Activity
[8] = test system: M14; experiment: Growth inhibition of human M14 cells assessed as cell growth at 10^-8 M by sulforhodamine B assay; conditions: read-out: Activity
[9] = test system: U-251; experiment: Growth inhibition of human U251 cells assessed as cell growth at 10^-8 M by sulforhodamine B assay; conditions: read-out: Activity
[10] = test system: HOP-92; experiment: Growth inhibition of human HOP92 cells assessed as cell growth at 10^-8 M by sulforhodamine B assay; conditions: read-out: Activity
[11] = test system: CCRF-CEM; experiment: Growth inhibition of human CCRF-CEM cells assessed as cell growth at 10^-8 M by sulforhodamine B assay; conditions: read-out: Activity
[12] = test system: BT-549; experiment: Growth inhibition of human BT549 cells by sulforhodamine B assay
[13] = test system: PC-3; experiment: Growth inhibition of human PC3 cells by sulforhodamine B assay
[14] = test system: CAKI-1; experiment: Growth inhibition of human CAKI-1 cells by sulforhodamine B assay
[15] = test system: OVCAR-3; experiment: Growth inhibition of human OVCAR3 cells by sulforhodamine B assay
[16] = test system: SNB-75; experiment: Growth inhibition of human SNB75 cells by sulforhodamine B assay
[17] = test system: A498; experiment: Growth inhibition of human A498 cells assessed as cell growth at 10^-4 M by sulforhodamine B assay; conditions: read-out: Activity
[18] = test system: OVCAR-4; experiment: Growth inhibition of human OVCAR4 cells assessed as cell growth at 10^-4 M by sulforhodamine B assay; conditions: read-out: Activity
[19] = test system: IGROV-1; experiment: Growth inhibition of human IGROV1 cells assessed as cell growth at 10^-4 M by sulforhodamine B assay; conditions: read-out: Activity
[20] = test system: SF-295; experiment: Growth inhibition of human SF295 cells assessed as cell growth at 10^-4 M by sulforhodamine B assay; conditions: read-out: Activity
[21] = test system: HT-29; experiment: Growth inhibition of human HT-29 cells assessed as cell growth at 10^-4 M by sulforhodamine B assay; conditions: read-out: Activity
[22] = test system: CCRF-CEM; experiment: Growth inhibition of human CCRF-CEM cells assessed as cell growth at 10^-4 M by sulforhodamine B assay; conditions: read-out: Activity
[23] = test system: 786-0; experiment: Growth inhibition of human 786-0 cells assessed as cell growth at 10^-6 M by sulforhodamine B assay; conditions: read-out: Activity
[24] = test system: SK-MEL-28; experiment: Growth inhibition of human SK-MEL-28 cells assessed as cell growth at 10^-6 M by sulforhodamine B assay; conditions: read-out: Activity
[25] = test system: SK-MEL-2; experiment: Growth inhibition of human SK-MEL-2 cells assessed as cell growth at 10^-6 M by sulforhodamine B assay; conditions: read-out: Activity
[26] = test system: SF-295; experiment: Growth inhibition of human SF295 cells assessed as cell growth at 10^-6 M by sulforhodamine B assay; conditions: read-out: Activity
[27] = test system: HCT-15; experiment: Growth inhibition of human HCT15 cells assessed as cell growth at 10^-6 M by sulforhodamine B assay; conditions: read-out: Activity
[28] = test system: BT-549; experiment: Growth inhibition of human BT549 cells assessed as cell growth at 10^-7 M by sulforhodamine B assay; conditions: read-out: Activity
[29] = test system: DU-145; experiment: Growth inhibition of human DU145 cells assessed as cell growth at 10^-7 M by sulforhodamine B assay; conditions: read-out: Activity
[30] = test system: A498; experiment: Growth inhibition of human A498 cells assessed as cell growth at 10^-7 M by sulforhodamine B assay; conditions: read-out: Activity
[31] = test system: OVCAR-5; experiment: Growth inhibition of human OVCAR5 cells assessed as cell growth at 10^-7 M by sulforhodamine B assay; conditions: read-out: Activity
[32] = test system: IGROV-1; experiment: Growth inhibition of human IGROV1 cells assessed as cell growth at 10^-7 M by sulforhodamine B assay; conditions: read-out: Activity
[33] = test system: UACC-62; experiment: Growth inhibition of human UACC62 cells assessed as cell growth at 10^-7 M by sulforhodamine B assay; conditions: read-out: Activity
[34] = test system: UACC-257; experiment: Growth inhibition of human UACC257 cells assessed as cell growth at 10^-7 M by sulforhodamine B assay; conditions: read-out: Activity
[35] = test system: SK-MEL-28; experiment: Growth inhibition of human SK-MEL-28 cells assessed as cell growth at 10^-7 M by sulforhodamine B assay; conditions: read-out: Activity
[36] = test system: SF-539; experiment: Growth inhibition of human SF539 cells assessed as cell growth at 10^-7 M by sulforhodamine B assay; conditions: read-out: Activity
[37] = test system: COLO 205; experiment: Growth inhibition of human COLO205 cells assessed as cell growth at 10^-7 M by sulforhodamine B assay; conditions: read-out: Activity
[38] = test system: A549; experiment: Growth inhibition of human A549/ATCC cells assessed as cell growth at 10^-7 M by sulforhodamine B assay; conditions: read-out: Activity
[39] = test system: SK-OV-3; experiment: Growth inhibition of human SKOV3 cells assessed as cell growth at 10^-8 M by sulforhodamine B assay; conditions: read-out: Activity
[40] = read-out: LC50 (the source's name)
[41] = read-out: pLC50 (the source's name) (converted)

CC(C)=CC(=O)O[C@@H]1CC(C)(C)C[C@H]2C3=CC[C@@H]4[C@@]5(C)CC[C@H](O)C(C)(C)[C@@H]5CC[C@@]4(C)[C@]3(C)CC[C@@]12C(=O)O [Reduced Lantadene B]
GI50 ([1]; read-out: GI50): 0.862 µM | LC50 (50% net cell kill) ([1]; read-out: LC50): > 100 µM | TGI ([1]; read-out: TGI): 19.6 µM | GI50 ([1]; read-out: pGI50 (converted)): 0.871 µM | LC50 (50% net cell kill) ([1]; read-out: pLC50 (converted)): > 100 µM | TGI ([1]; read-out: pTGI (converted)): 19.5 µM | GI50 ([2]; read-out: GI50): 3.62 µM | LC50 (50% lethal concentration) ([2]; read-out: LC50): 58 µM | TGI ([2]; read-out: TGI): 15 µM | GI50 ([2]; read-out: pGI50 (converted)): 3.63 µM | LC50 (50% lethal concentration) ([2]; read-out: pLC50 (converted)): 57.5 µM | TGI ([2]; read-out: pTGI (converted)): 15.1 µM | GI50 ([3]; read-out: GI50): 7.24 µM | CC50 [3, 40]: 84 µM | TGI ([3]; read-out: TGI): 26.9 µM | GI50 ([3]; read-out: pGI50 (converted)): 7.24 µM | CC50 [3, 41]: 83.2 µM | TGI ([3]; read-out: pTGI (converted)): 26.9 µM | GI50 ([4]; read-out: GI50): 2.83 µM | CC50 [4, 40]: > 100 µM | TGI ([4]; read-out: TGI): 34.8 µM | GI50 ([4]; read-out: pGI50 (converted)): 2.82 µM | CC50 [4, 41]: > 100 µM | TGI ([4]; read-out: pTGI (converted)): 34.7 µM | growth at 0.01 µM [5]: 96% | growth at 0.01 µM [6]: 100% | growth at 0.01 µM [7]: 97% | growth at 0.01 µM [8]: 94% | growth at 0.01 µM [9]: 96% | growth at 0.01 µM [10]: 91% | growth at 0.01 µM [11]: 103% | GI50 ([12]; read-out: GI50): 6.61 µM | CC50 [12, 40]: 72.1 µM | TGI ([12]; read-out: TGI): 24.2 µM | GI50 ([12]; read-out: pGI50 (converted)): 6.61 µM | CC50 [12, 41]: 72.4 µM | TGI ([12]; read-out: pTGI (converted)): 24 µM | GI50 ([13]; read-out: GI50): 3.6 µM | CC50 [13, 40]: 64 µM | TGI ([13]; read-out: TGI): 21.9 µM | GI50 ([13]; read-out: pGI50 (converted)): 3.63 µM | CC50 [13, 41]: 64.6 µM | TGI ([13]; read-out: pTGI (converted)): 21.9 µM | GI50 ([14]; read-out: GI50): 3.39 µM | CC50 [14, 40]: > 100 µM | TGI ([14]; read-out: TGI): 46.8 µM | GI50 ([14]; read-out: pGI50 (converted)): 3.39 µM | CC50 [14, 41]: > 100 µM | TGI ([14]; read-out: pTGI (converted)): 46.8 µM | GI50 ([15]; read-out: GI50): 7.04 µM | CC50 [15, 40]: 54.7 µM | TGI ([15]; read-out: TGI): 22.1 µM | GI50 ([15]; read-out: pGI50 (converted)): 7.08 µM | CC50 [15, 41]: 55 µM | TGI ([15]; read-out: pTGI (converted)): 21.9 µM | GI50 ([16]; read-out: GI50): 12.7 µM | CC50 [16, 40]: > 100 µM | TGI ([16]; read-out: TGI): 41.2 µM | GI50 ([16]; read-out: pGI50 (converted)): 12.9 µM | CC50 [16, 41]: > 100 µM | TGI ([16]; read-out: pTGI (converted)): 40.7 µM | growth at 100 µM [17]: -90% | growth at 100 µM [18]: -39% | growth at 100 µM [19]: -43% | growth at 100 µM [20]: -71% | growth at 100 µM [21]: -36% | growth at 100 µM [22]: -16% | growth at 1 µM [23]: 93% | growth at 1 µM [24]: 97% | growth at 1 µM [25]: 107% | growth at 1 µM [26]: 59% | growth at 1 µM [27]: 58% | growth at 0.1 µM [28]: 98% | growth at 0.1 µM [29]: 100% | growth at 0.1 µM [30]: 85% | growth at 0.1 µM [31]: 111% | growth at 0.1 µM [32]: 106% | growth at 0.1 µM [33]: 90% | growth at 0.1 µM [34]: 93% | growth at 0.1 µM [35]: 100% | growth at 0.1 µM [36]: 98% | growth at 0.1 µM [37]: 97% | growth at 0.1 µM [38]: 79% | growth at 0.01 µM [39]: 102%
